Test results reported in patent publication US20230310395A1, “TOPICAL ROFLUMILAST COMPOSITIONS AND USES THEREOF” (Sol-Gel Technologies Ltd., priority 2020, published 2023).

What was measured:
[1] = system: psoriasis-induced xenotransplants (human skin grafted on beige-SCID mice, injected with PBMC's from psoriatic patients); experiment: Efficacy study in psoriasis-induced human skin xenotransplants on beige-SCID mice, histological evaluation; assay type: in vivo; settings: topical treatment for 14 days (Day 42-56), histology at Day 56
Source text: The objective of this study was to determine the efficacy of Roflumilast as provided herein (at Examples 4 and 5) compared to the vehicle and Dexamethasone as shown at the Table 3. The evaluation was based on histology analysis following application of the respective test formulations.
The efficacy study has been conducted on female mice. The total duration of the experiment was 8 weeks, upon receiving of the human skin. Normal skin from healthy volunteers were obtained for grafting. Healthy human abdominal skin pieces with a width of 0.4 mm and surface area of 1.5×1.5 cm were provided. The skin sample was preserved in isotonic saline solution and transplanted within 6-12 hours after skin donation. In addition, blood samples were collected from psoriatic patients having classic plaque psoriasis and not undergoing any treatment. 20 mL blood samples were taken from both males and females psoriatic patients (from psoriatic patients having classic plaque psoriasis and not undergoing any treatment), and peripheral blood mononuclear cells (PBMC) were separated immediately after blood withdrawal.
Mice: Beige-severe combined immunodeficient mice C.B-17/IcrHsdscid-bg (beige-SCID) mice (weight ˜25 g) were included in this study. Mice were monitored twice a week for vital signs such as weight, food intake, coat, eyes, anal genital areas, discharge/soiling, behavior and criteria related to skin transplantation. Normal healthy human donor skin were transplanted onto the beige-SCID mice as previously described (See Keren A. et al., Novel nanosome delivery system combined with siRNA targeting the antimicrobial gene DFB4: a new approach for psoriasis management? Exp Dermatol. 2014; 23:464-465; Bracke S. et al., Targeted silencing of DEFB4 in a bioengineered skin-humanized mouse model for psoriasis: development of siRNA SECosome-based novel therapies. Exp Dermatol. 2014 ;23:199-201; Zaretsky M. et al., Directed evolution of a soluble human IL-17A receptor for the inhibition of psoriasis plaque formation in a mouse model. Chem Biol. 2013 21; 20:202-2; Gilhar A. et al., The beneficial effect of blocking Kv1.3 in the psoriasiform SCID mouse model. J Invest Dermatol. 2011;131:118 124; Keren A. et al., Innate lymphoid cells 3 induce psoriasis in xenotransplanted healthy human skin. J Allergy Clin Immunol. 2018;142:305-308.e6.).
British Journal of Pharmacology 2010; 159:842-855).
Four weeks following the engraftment, each mouse was injected (intradermally) with 1×10^7 IL-2 enriched allogeneic PBMC's from psoriatic patients (1×10^7 cells injected/mouse). Cells from different psoriasis patients were equally distributed between treatment groups. Each patient was represented in each treatment group.
Fourteen days following cells injections, the mice were divided into treatment groups (Table 4, see below) and treated according to the timeline indicated below (see Scheme 1). Each transplant was equally topically treated (50 μg) by using a sterile spatula.
Dexamethasone (D2915, Sigma): was freshly prepared for each administration by dilution in saline to final concentration (50 mg/ml). Dexamethasone serves as a positive control and was administered topically twice daily for 14 days following cells injections (at Day 42 following human skin transplantation) until the end of the study (Day 56).
The vehicle was administered topically (50 μg) once daily for 14 days as well.
On Day 56, the entire skin graft was excised and placed in 10% formaldehyde in saline overnight. Then, the specimens were placed in 70% ethanol and embedded and stained according to the standard Hematoxylin/Eosin protocol.
Skin graft histological assessment was performed (according to the psoriatic criteria including epidermal thickness) using light microscopy, and two observers blindly performed the evaluations. Epidermal thickness was determined using an ocular micrometer at a minimum of 50 points along the epidermis selected to represent points of maximal and minimal thickness. […]

[2] = according to the roflumilast DrugBank monograph; cited from earlier work
[3] = number of grafts/mice out of 10

Row | Compound | Complete Recovery [1, 3] | Partial Recovery [1, 3] | Psoriatic Features [1, 3] | Complete Recovery (%) ([1]; percent of grafts/mice) | Partial Recovery (%) ([1]; percent of grafts/mice) | Psoriatic Features (%) ([1]; percent of grafts/mice) | calculated water solubility [2] [µg/mL]
1 | C[C@@H]1C[C@H]2[C@@H]3CCC4=CC(=O)C=C[C@]4(C)[C@@]3(F)[C@@H](O)C[C@]2(C)[C@@]1(O)C(=O)CO [Dexamethasone] | 9/10 | 1/10 | 0/10 | (90%) | (10%) | (0%) | 
2 | O=C(Nc1c(Cl)cncc1Cl)c1ccc(OC(F)F)c(OCC2CC2)c1 [Roflumilast, 3-(cyclopropylmethoxy)-n-(3,5-dichloropyridin-4-yl)-4-(difluoromethoxy)-benzamide] |  |  |  |  |  |  | 6.2
